ChEMBL document CHEMBL5512659, “Structure optimizing of flavonoids against both MRSA and VRE” (Eur J Med Chem, 2024)
In brackets after ≈: the same amount, converted by molar mass. Activity calls are given as the source filed them. The rule behind the calls is not given here.

Experiments:
[1] = tested on: Enterococcus faecalis; experiment: Antibacterial activity against Enterococcus faecalis clinical isolate 13; type: functional
[2] = tested on: Enterococcus faecalis; experiment: Antibacterial activity against multidrug resistant Enterococcus faecalis ATCC 51299 in presence of 140 mM/L Na+ (reference value: 1 ug/ml); type: functional
[3] = tested on: Enterococcus faecalis; experiment: Antibacterial activity against multidrug resistant Enterococcus faecalis ATCC 51299 in presence of 4.5 mM/L K+ (reference value: 1 ug/ml); type: functional
[4] = tested on: Staphylococcus aureus; experiment: Antibacterial activity against methicillin resistant Staphylococcus aureus clinical isolate 003 in presence of 4.5 mM/L K+ (reference value: 0.25 ug/ml); type: functional
[5] = tested on: Enterococcus faecalis; experiment: Antibacterial activity against multidrug resistant Enterococcus faecalis ATCC 51299 in presence of 2.5 mM/L Ca+ (reference value: 1 ug/ml); type: functional
[6] = tested on: Staphylococcus aureus; experiment: Antibacterial activity against methicillin resistant Staphylococcus aureus clinical isolate 003 in presence of 2.5 mM/L Ca2+ (reference value: 0.25 ug/ml); type: functional
[7] = tested on: Enterococcus faecalis; experiment: Antibacterial activity against multidrug resistant Enterococcus faecalis ATCC 51299 in presence of 1 mM/L Mg2+ (reference value: 1 ug/ml); type: functional
[8] = tested on: Staphylococcus aureus; experiment: Antibacterial activity against methicillin resistant Staphylococcus aureus clinical isolate 003 in presence of 1 mM/L Mg2+ (reference value: 0.25 ug/ml); type: functional
[9] = tested on: Enterococcus faecalis; experiment: Antibiofilm activity in multidrug resistant Enterococcus faecalis ATCC 51299 assessed as biofilm clearance at 0.5 to 4 times MIC by crystal violet staining based analysis; type: functional, organism-based
[10] = tested on: Cell membrane; experiment: Induction of membrane damage in methicillin resistant Staphylococcus aureus clinical isolate 003 assessed as rupture of bacterial surface at 2 to 4 times MIC by SEM analysis; type: cell membranes
[11] = tested on: Cell membrane; experiment: Induction of membrane damage in multidrug resistant Enterococcus faecalis ATCC 51299 assessed as rupture of bacterial surface at 2 to 4 times MIC by SEM analysis; type: cell membranes
[12] = tested on: Enterococcus faecalis; experiment: Antibacterial activity against multidrug resistant Enterococcus faecalis ATCC 51299 in presence of peptidoglycan; type: functional, organism-based
[13] = tested on: Enterococcus faecalis; experiment: Antibacterial activity against multidrug resistant Enterococcus faecalis ATCC 51299 in presence of cardiolipin; type: functional, organism-based
[14] = tested on: Cell membrane; experiment: Disruption of membrane permeability in methicillin resistant Staphylococcus aureus clinical isolate 003 assessed as increase in fluorescence intensity at 4 to 8 times MIC by PI staining based analysis
[15] = tested on: Cell membrane; experiment: Disruption of membrane permeability in multidrug resistant Enterococcus faecalis ATCC 51299 assessed as increase in ROS accumulation at 2 to 4 times MIC measured after 1 hr
[16] = tested on: Cell membrane; experiment: Disruption of membrane permeability in methicillin resistant Staphylococcus aureus clinical isolate 003 assessed as increase in malondialdehyde level
[17] = tested on: Cell membrane; experiment: Induction of cell membrane damage in methicillin resistant Staphylococcus aureus clinical isolate 003 assessed as increase in green fluorescence at 2 to 4 times MIC by SYTOX Green dye based analysis; type: cell membranes
[18] = Cytotoxicity against HEK293T cells assessed as cell viability at 64 ug/ml measured after 48 hrs relative to control; type: toxicity, cell-based, HEK-293T; conditions: human, at 64 µg/mL, read-out: Activity
[19] = Cytotoxicity against human L02 cells assessed as cell viability at 64 ug/ml measured after 48 hrs relative to control; type: toxicity, cell-based; conditions: at 64 µg/mL, read-out: Activity
[20] = tested on: Staphylococcus aureus; experiment: Additive antibacterial activity against methicillin resistant Staphylococcus aureus clinical isolate 003 assessed as fractional inhibitory concentration in presence of ampicillin; type: functional
[21] = tested on: Staphylococcus aureus; experiment: Additive antibacterial activity against methicillin resistant Staphylococcus aureus clinical isolate 003 assessed as fractional inhibitory concentration in presence of vancomycin; type: functional
[22] = tested on: Staphylococcus aureus; experiment: Synergistic antibacterial activity against methicillin resistant Staphylococcus aureus clinical isolate 003 assessed as fractional inhibitory concentration in presence of tetracycline; type: functional
[23] = tested on: Enterococcus faecalis; experiment: Synergistic antibacterial activity against multidrug resistant Enterococcus faecalis ATCC 51299 assessed as fractional inhibitory concentration in presence of tetracycline; type: functional
[24] = tested on: Enterococcus faecalis; experiment: Synergistic antibacterial activity against multidrug resistant Enterococcus faecalis ATCC 51299 assessed as fractional inhibitory concentration in presence of vancomycin; type: functional
[25] = tested on: Enterococcus faecalis; experiment: Synergistic antibacterial activity against multidrug resistant Enterococcus faecalis ATCC 51299 assessed as fractional inhibitory concentration in presence of azithromycin; type: functional
[26] = tested on: Staphylococcus aureus; experiment: (§1) Antibacterial activity against methicillin resistant Staphylococcus aureus clinical isolate 003 infected in cyclophosphamide immunosuppressed mouse model of skin wound infection assessed as reduction in bacterial load in wound at 1.25 mg/kg administered for 7 days and measured on day 8 (reference value: 1.6 x 10^8 CFU); type: functional; conditions: time 8 day
[27] = tested on: Staphylococcus aureus; experiment: as §1, with “2.5” for “1.25”; type: functional; conditions: time 8 day
[28] = tested on: Staphylococcus aureus; experiment: Antibacterial activity against methicillin resistant Staphylococcus aureus clinical isolate 003 infected in cyclophosphamide immunosuppressed mouse model of skin wound infection assessed as reduction in inflammatory cells in skin at 1.25 to 5 mg/kg administered for 7 days and measured on day 8 by H and E staining based analysis; type: functional, organism-based; conditions: dose 1.25-5 mg/kg, time 8.0 day
[29] = tested on: Enterococcus faecalis; experiment: Antibacterial activity against multidrug resistant Enterococcus faecalis ATCC 51299 infected in cyclophosphamide immunosuppressed mouse model of abdominal infection assessed as eradication of bacterial colonies in liver at 1.25 to 5 mg/kg measured after 60 hrs relative to control; type: functional; conditions: dose 1.25-5 mg/kg
[30] = tested on: Enterococcus faecalis; experiment: Antibacterial activity against multidrug resistant Enterococcus faecalis ATCC 51299 infected in cyclophosphamide immunosuppressed mouse model of abdominal infection assessed as eradication of bacterial colonies in spleen at 1.25 to 5 mg/kg measured after 60 hrs relative to control; type: functional; conditions: dose 1.25-5 mg/kg
[31] = tested on: Enterococcus faecalis; experiment: Antibacterial activity against multidrug resistant Enterococcus faecalis ATCC 51299 infected in cyclophosphamide immunosuppressed mouse model of abdominal infection assessed as eradication of bacterial colonies in kidney at 1.25 to 5 mg/kg measured after 60 hrs relative to control; type: functional; conditions: dose 1.25-5 mg/kg
[32] = tested on: Enterococcus faecalis; experiment: Antibacterial activity against multidrug resistant Enterococcus faecalis ATCC 51299 infected in cyclophosphamide immunosuppressed mouse model of abdominal infection assessed as reduction in abscess at 1.25 to 5 mg/kg measured after 60 hrs by H and E staining based analysis; type: functional, organism-based; conditions: dose 1.25-5 mg/kg
[33] = tested on: Staphylococcus aureus; experiment: Antibacterial activity against methicillin resistant Staphylococcus aureus clinical isolate 003 in presence of 2.5 mM/L Ca2+ (reference value: 0.5 ug/ml); type: functional
[34] = tested on: Staphylococcus aureus; experiment: Antibacterial activity against methicillin resistant Staphylococcus aureus clinical isolate 003 in presence of 140 mM/L Na+ (reference value: 1 ug/ml); type: functional
[35] = tested on: Enterococcus faecalis; experiment: Antibacterial activity against multidrug resistant Enterococcus faecalis ATCC 51299 in presence of 140 mM/L Na+ (reference value: 32 ug/ml); type: functional
[36] = tested on: Staphylococcus aureus; experiment: Antibacterial activity against methicillin resistant Staphylococcus aureus clinical isolate 003 in presence of 2.5 mM/L Ca2+ (reference value: 1 ug/ml); type: functional
[37] = tested on: Enterococcus faecalis; experiment: Antibacterial activity against multidrug resistant Enterococcus faecalis ATCC 51299 in presence of 2.5 mM/L Ca+ (reference value: 32 ug/ml); type: functional
[38] = tested on: Staphylococcus aureus; experiment: Antibacterial activity against methicillin resistant Staphylococcus aureus clinical isolate 003 in presence of 1 mM/L Mg2+ (reference value: 1 ug/ml); type: functional
[39] = tested on: Enterococcus faecalis; experiment: Antibacterial activity against multidrug resistant Enterococcus faecalis ATCC 51299 in presence of 1 mM/L Mg2+ (reference value: 32 ug/ml); type: functional

## CCCCCCc1c(-c2ccc(OCCCCNCCCN)cc2OCCCCNCCCN)oc2cc(OC)cc(O)c2c1=O
[1]
  MIC: 0.5 µg/mL (≈ 0.78 µM)
[2]
  MIC: 1 µg/mL
[3]
  MIC: 1 µg/mL
[4]
  MIC: 0.125 µg/mL
[5]
  MIC: 1 µg/mL
[6]
  MIC: 0.25 µg/mL
[7]
  MIC: 1 µg/mL
[8]
  MIC: 0.25 µg/mL
[9]
  Activity: Dose-Dependent Effect
[10]
  Activity: Active
[11]
  Activity: Active
[12]
  Activity: Active
[13]
  Activity: inactive
[14]
  Activity: Active
[15]
  Activity: Active
[16]
  Activity: Active
[17]
  Activity: Active
[18]
  viability at 48 h, 64 ug/ml: > 50%
[19]
  viability at 48 h, 64 ug/ml: > 50%
[20]
  fractional inhibitory concentration index (FICI): 0.75
[21]
  fractional inhibitory concentration index (FICI): 1
[22]
  fractional inhibitory concentration index (FICI): 0.375
[23]
  fractional inhibitory concentration index (FICI): 0.25
[24]
  fractional inhibitory concentration index (FICI): 0.375
[25]
  fractional inhibitory concentration index (FICI): 0.313
[26]
  Activity: 9.2 10^6CFU
[27]
  Activity: 8 10^6CFU
[28]
  Activity: Active
[29]
  Activity: 97%
[30]
  Activity: 95.5%
[31]
  Activity: 99.2%
[32]
  Activity: Active

## CCCCCCc1c(-c2ccc(OCCCCN(C)C)cc2OCCCCN(C)C)oc2cc(OC)cc(O)c2c1=O
[1]
  MIC: 1 µg/mL (≈ 1.72 µM)
[2]
  MIC: 1 µg/mL
[3]
  MIC: 1 µg/mL
[33]
  MIC: 1 µg/mL
[5]
  MIC: 1 µg/mL
[7]
  MIC: 1 µg/mL
[9]
  Activity: Dose-Dependent Effect
[10]
  Activity: Active
[11]
  Activity: Active
[12]
  Activity: Active
[13]
  Activity: inactive
[14]
  Activity: Active
[15]
  Activity: Active
[16]
  Activity: Active
[17]
  Activity: Active

## CCCCCCc1c(-c2ccc(OCC(=O)CN[C@H](CCCNC(=N)N)C(=O)OC)cc2OCC(=O)CN[C@H](CCCNC(=N)N)C(=O)OC)oc2cc(OC)cc(O)c2c1=O
[1]
  MIC: 32 µg/mL (≈ 36.8 µM)
[34]
  MIC: 1 µg/mL
[35]
  MIC: 32 µg/mL
[36]
  MIC: 1 µg/mL
[37]
  MIC: 32 µg/mL
[38]
  MIC: 1 µg/mL
[39]
  MIC: 32 µg/mL
[9]
  Activity: Dose-Dependent Effect
[10]
  Activity: Active
[11]
  Activity: Active
[12]
  Activity: Active
[13]
  Activity: inactive
[14]
  Activity: Active
[15]
  Activity: Active
[16]
  Activity: Active
[17]
  Activity: Active
